# Measured values from patent publication US9708336B2, “Metallo-beta-lactamase inhibitors” (priority 2014, dated 2017).
# Where two headings read alike, the source gives them in different places.
# Columns and labels:
# [1] = biological target: VIM-1 (Pseudomonas aeruginosa (strain ATCC 15692 / DSM 22644 / CIP 104116 / JCM 14847 / LMG 12228 / 1C / PRS 101 / PAO1), UniProt A0A0F7KYQ8); assay: Enzyme activity: determination of IC50, fluorescence assay with CCF2-FA substrate (VIM-1); format: biochemical
# [2] = test system: Klebsiella pneumoniae expressing VIM-1 (IHMA599644); assay: Antibiotic potentiation activity: synergistic concentration (MITC95) with imipenem, OD600 growth; format: cell-based; conditions: for Klebsiella pneumoniae expressing VIM-1 (IHMA 599644) MITC95: concentration giving 95% inhibition of bacterial growth
# Method in brief: (§1)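 Growth after 22–24 h at 35 °C is measured spectrophotometrically for bacteria incubated with compound plus imipenem (4 μg/ml in-well, or 1 μg/ml). Cells come from overnight agar colonies resuspended in saline and diluted 1:100 in 1.1× CAMHB.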
# [3] = test system: Serratia marcescens expressing IMP-1 (CL5741); assay: as above; format: cell-based; conditions: for Serratia marcescens expressing IMP-1 (CL5741) MITC95: concentration giving 95% inhibition of bacterial growth
# Method in brief: as §1
# [4] = test system: Escherichia coli expressing NDM-1 (CLB30016); assay: as above; format: cell-based; conditions: for Escherichia coli expressing NDM-1 (CLB 30016) MITC95: concentration giving 95% inhibition of bacterial growth
# Method in brief: as §1
# [5] = biological target: NDM-1 (Klebsiella pneumoniae, UniProt C7C422); assay: biochemical; format: biochemical; conditions: read-out: NDM-1 IC50
# [6] = biological target: IMP-1 (Serratia marcescens, UniProt P52699); assay: biochemical; format: biochemical; conditions: read-out: IMP-1 IC50
# [7] = VIM-1 enzyme, CCF2-FA fluorescence assay, read-out: VIM-1 IC50
# [8] = Klebsiella pneumoniae expressing VIM-1 (IHMA599644), 95% growth inhibition
# [9] = Serratia marcescens expressing IMP-1 (CL5741), 95% growth inhibition
# [10] = Escherichia coli expressing NDM-1 (CLB30016), 95% growth inhibition
# [11] = NDM-1 enzyme, CCF2-FA fluorescence assay
# [12] = IMP-1 enzyme, CCF2-FA fluorescence assay
# [13] = VIM-1 IC50, fluorescence assay with CCF2-FA substrate
# [14] = IHMA599644 (VIM-1), 95% inhibition of bacterial growth
# [15] = CL5741 (IMP-1), 95% inhibition of bacterial growth
# [16] = CLB30016 (NDM-1), 95% inhibition of bacterial growth
# [17] = fluorescence assay with CCF2-FA substrate
# [18] = VIM-1 enzyme, CCF2-FA substrate, read-out: VIM-1 IC50
# [19] = Klebsiella pneumoniae IHMA599644 (VIM-1), 95% growth inhibition
# [20] = Serratia marcescens CL5741 (IMP-1), 95% growth inhibition
# [21] = (CLB30016, NDM-1), 95% growth inhibition
# [22] = NDM-1 enzyme, CCF2-FA substrate
# [23] = IMP-1 enzyme, CCF2-FA substrate
# [24] = fluorescence assay with CCF2-FA substrate, read-out: VIM-1 IC50
# Sequence of NDM-1 (C7C422 whole entry, looked up, species assumed): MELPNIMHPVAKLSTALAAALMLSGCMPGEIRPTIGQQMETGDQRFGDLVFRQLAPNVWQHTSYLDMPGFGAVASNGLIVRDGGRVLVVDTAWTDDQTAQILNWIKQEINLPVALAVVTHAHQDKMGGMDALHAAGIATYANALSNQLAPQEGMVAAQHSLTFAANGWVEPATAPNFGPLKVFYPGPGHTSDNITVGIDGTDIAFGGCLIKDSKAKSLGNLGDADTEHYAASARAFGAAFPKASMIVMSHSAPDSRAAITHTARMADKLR
# Sequence of IMP-1 (P52699 whole entry, looked up): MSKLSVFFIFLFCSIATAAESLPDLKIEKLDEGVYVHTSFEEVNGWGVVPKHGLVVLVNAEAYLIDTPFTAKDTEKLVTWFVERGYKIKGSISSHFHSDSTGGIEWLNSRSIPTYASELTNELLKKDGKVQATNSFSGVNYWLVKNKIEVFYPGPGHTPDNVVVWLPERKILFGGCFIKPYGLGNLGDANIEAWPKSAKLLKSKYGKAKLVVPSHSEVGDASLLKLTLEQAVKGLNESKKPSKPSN
Structure (SMILES),"IC50 [1, 7] [nM]","Klebsiella pneumoniae MITC95 [2, 8] [µM]","Serratia marcescens MITC95 [3, 9] [µM]","Escherichia coli MITC95 [4, 10] [µM]","IC50 [5, 11] [nM]","IC50 [6, 12] [nM]","IC50 [5, 17] [nM]","IC50 [6, 17] [nM]",other results
"Cc1nc(CNCc2ccc(-c3cccc(S(N)(=O)=O)c3-c3nnn[nH]3)cc2)no1 [Example 360, 4′-({[(5-methyl-1,2,4-oxadiazol-3-yl)methyl]amino}methyl)-2-(1H-tetrazol-5-yl)biphenyl-3-sulfonamide]",232,>200,2.344,2.344,1.52,37.6,–,–,–
"CN(CC(=O)O)Cc1ccc(-c2cccc(S(N)(=O)=O)c2-c2nnn[nH]2)cc1 [Example 364, N-methyl-N-{[3′-sulfamoyl-2′-(1H-tetrazol-5-yl)biphenyl-4-yl]methyl}glycine]",212,25,3.125,1.563,9.17,100,–,–,–
"NCCNC1CCC(c2ccc(C(F)(F)F)c(S(N)(=O)=O)c2-c2nnn[nH]2)CC1 (stereo not drawn) [Example 827, 3-[4-(trans-2-aminoethylamino)cyclohexyl]-2-(1H-tetrazol-5-yl)-6-(trifluoromethyl)benzenesulfonamide]",–,–,–,–,–,–,5.72,22.6,"IC50 [1, 13]: 2.59 nM; Klebsiella pneumoniae MITC95 [2, 14]: 1.172 µM; Serratia marcescens MITC95 [3, 15]: 0.3906 µM; Escherichia coli MITC95 [4, 16]: 0.3906 µM"
"NS(=O)(=O)c1c(C[C@H]2CC[C@H](N)CC2)ccc(-c2ccc(C3CCNC3)cc2)c1-c1nn[nH]n1 (stereo partly drawn) [Example 582, 4-(((1r,4r)-4-aminocyclohexyl)methyl)-4′-(pyrrolidin-3-yl)-2-(2H-tetrazol-5-yl)-[1,1′-biphenyl]-3-sulfonamide]",–,–,–,–,–,–,–,–,"IC50 [1, 18]: 1.57 nM; Klebsiella pneumoniae MITC95 [2, 19]: 1.563 µM; Serratia marcescens MITC95 [3, 20]: 1.563 µM; Escherichia coli MITC95 [4, 21]: 0.7813 µM; IC50 [5, 22]: 3.99 nM; IC50 [6, 23]: 17.4 nM"
"NS(=O)(=O)c1c(C(F)(F)F)ccc(-c2ccc(C3CCN(C4CC5(CCNCC5)C4)CC3)cc2)c1-c1nnn[nH]1 [Example 797, 4′-[1-(7-azaspiro[3.5]non-2-yl)piperidin-4-yl]-2-(1H-tetrazol-5-yl)-4-(trifluoromethyl)biphenyl-3-sulfonamide]",–,–,–,–,–,–,5.57,1.51,"IC50 [1, 24]: 9.92 nM; Klebsiella pneumoniae MITC95 [2, 14]: 25 µM; Serratia marcescens MITC95 [3, 15]: 3.125 µM; Escherichia coli MITC95 [4, 16]: 3.125 µM"
"NCCS(=O)(=O)c1ccc(-c2ccc(C(F)(F)F)c(S(N)(=O)=O)c2-c2nnn[nH]2)cc1 [Example 736, 4′-[(2-aminoethyl)sulfonyl]-2-(1H-tetrazol-5-yl)-4-(trifluoromethyl)biphenyl-3-sulfonamide]",–,–,–,–,–,–,–,–,"IC50 [1, 18]: 1.59 nM; Klebsiella pneumoniae MITC95 [2, 19]: 6.25 µM; Serratia marcescens MITC95 [3, 20]: 6.25 µM; Escherichia coli MITC95 [4, 21]: 6.25 µM; IC50 [5, 22]: 3.23 nM; IC50 [6, 23]: 3.23 nM"
"NC1CCC(c2ccc(-c3ccc(C4CCNCC4)cc3)c(-c3nn[nH]n3)c2S(N)(=O)=O)CC1 (stereo not drawn) [Example 459, 4-(4-aminocyclohexyl)-4′-(piperidin-4-yl)-2-(2H-tetrazol-5-yl)-[1,1′-biphenyl]-3-sulfonamide]",112,3.125,1.172,6.25,1120,86.6,–,–,–
"NC1(c2ccc(-c3ccc(C(F)(F)F)c(S(N)(=O)=O)c3-c3nn[nH]n3)cc2)CCNCC1 [Example 436, 4′-(4-aminopiperidin-4-yl)-2-(2H-tetrazol-5-yl)-4-(trifluoromethyl)-[1,1′-biphenyl]-3-sulfonamide]",3.04,0.8542,0.2552,0.375,9.32,12.8,–,–,–
"C[N+](C)(C)CCN1CCC(c2ccc(-c3ccc(C(F)(F)F)c(S(N)(=O)=O)c3-c3nnn[nH]3)cc2)CC1 [Example 677, N,N,N-trimethyl-2-{4-[3′-sulfamoyl-2′-(1H-tetrazol-5-yl)-4′-(trifluoromethyl)biphenyl-4-yl]piperidin-1-yl}ethanaminium]",–,–,–,–,–,–,–,–,"IC50 [1, 18]: 19.4 nM; Klebsiella pneumoniae MITC95 [2, 19]: >200 µM; Serratia marcescens MITC95 [3, 20]: 12.5 µM; Escherichia coli MITC95 [4, 21]: 12.5 µM; IC50 [5, 22]: 4.17 nM; IC50 [6, 23]: 0.541 nM"
"CN1CCC2(CCN(c3ccc(-c4cccc(S(N)(=O)=O)c4-c4nnn[nH]4)cn3)C2)C1 (stereo not drawn) [Example 632, 3-[6-(7-methyl-2,7-diazaspiro[4.4]nonan-2-yl)-3-pyridyl]-2-(1H-tetrazol-5-yl)benzenesulfonamide]",–,–,–,–,–,–,–,–,"IC50 [1, 18]: 482 nM; Klebsiella pneumoniae MITC95 [2, 19]: 100 µM; Serratia marcescens MITC95 [3, 20]: 6.25 µM; Escherichia coli MITC95 [4, 21]: 1.172 µM; IC50 [5, 22]: 26.8 nM; IC50 [6, 23]: 254 nM"
"NS(=O)(=O)c1cccc(-c2cnc(NC3CCCC3)nc2)c1-c1nnn[nH]1 [Example 124, 3-(2-(cyclopentylamino)pyrimidin-5-yl)-2-(1H-tetrazol-5-yl)benzenesulfonamide]",–,–,–,–,–,–,4.34,68.9,"IC50 [1, 24]: 259 nM; Klebsiella pneumoniae expressing VIM-1 (IHMA 599644) MITC95 [2]: >200 µM; Serratia marcescens expressing IMP-1 (CL5741) MITC95 [3]: 6.25 µM; Escherichia coli expressing NDM-1 (CLB 30016) MITC95 [4]: 2.344 µM"
"NS(=O)(=O)c1c(C(F)(F)F)ccc(-c2ccc3c(c2)CNC3)c1-c1nn[nH]n1 [Example 441, 3-(isoindolin-5-yl)-2-(2H-tetrazol-5-yl)-6-(trifluoromethyl)benzenesulfonamide]",0.838,0.7813,1.563,1.172,11.3,22.1,–,–,–
"CC(CC(=O)O)NCc1ccc(-c2cccc(S(N)(=O)=O)c2-c2nnn[nH]2)cc1 (stereo not drawn) [Example 344, 3-({[3′-sulfamoyl-2′-(1H-tetrazol-5-yl)biphenyl-4-yl]methyl}amino)butanoic acid]",585,100,4.688,2.344,32.8,242,–,–,–
"CC(C)(O)C1CN(c2ccc(-c3cccc(S(N)(=O)=O)c3-c3nnn[nH]3)cn2)C1 [Example 624, 3-[6-[3-(1-hydroxy-1-methyl-ethyl)azetidin-1-yl]-3-pyridyl]-2-(1H-tetrazol-5-yl)benzenesulfonamide]",–,–,–,–,–,–,–,–,"IC50 [1, 18]: 559 nM; Klebsiella pneumoniae MITC95 [2, 19]: >200 µM; Serratia marcescens MITC95 [3, 20]: 12.5 µM; Escherichia coli MITC95 [4, 21]: 7.813 µM; IC50 [5, 22]: 10.2 nM; IC50 [6, 23]: 86.2 nM"
"Nc1nnc(C2CCN(c3ccc(C(F)(F)F)c(S(N)(=O)=O)c3-c3nnn[nH]3)CC2)s1 [Example 764, 3-[4-(5-amino-1,3,4-thiadiazol-2-yl)piperidin-1-yl]-2-(1H-tetrazol-5-yl)-6-(trifluoromethyl) benzenesulfonamide]",–,–,–,–,–,–,273,68.7,"IC50 [1, 13]: 27.7 nM; Klebsiella pneumoniae MITC95 [2, 14]: >200 µM; Serratia marcescens MITC95 [3, 15]: 50 µM; Escherichia coli MITC95 [4, 16]: 100 µM"
"CC(C)(C)c1cccc(S(N)(=O)=O)c1-c1nnn[nH]1 [Example 161, 3-(tert-butyl)-2-(1H-tetrazol-5-yl)benzenesulfonamide]",–,–,–,–,–,–,20.1,306,"IC50 [1, 13]: 874 nM; Klebsiella pneumoniae expressing VIM-1 (IHMA 599644) MITC95 [2]: 150 µM; Serratia marcescens expressing IMP-1 (CL5741) MITC95 [3]: 6.25 µM; Escherichia coli expressing NDM-1 (CLB 30016) MITC95 [4]: 1.563 µM"
"NC1CCCC(N2CC(c3ccc(-c4ccc(C(F)(F)F)c(S(N)(=O)=O)c4-c4nnn[nH]4)cc3)C2)C1 (stereo not drawn) [Example 810, 4′-[1-(3-aminocyclohexyl)azetidin-3-yl]-2-(1H-tetrazol-5-yl)-4-(trifluoromethyl)biphenyl-3-sulfonamide]",–,–,–,–,–,–,7.06,8.92,"IC50 [1, 24]: 26.8 nM; Klebsiella pneumoniae MITC95 [2, 14]: 100 µM; Serratia marcescens MITC95 [3, 15]: 6.25 µM; Escherichia coli MITC95 [4, 16]: 3.125 µM"
"NS(=O)(=O)c1c(CC2CCNCC2)ccc(-c2ccc(C3CCNCC3)cc2)c1-c1nn[nH]n1 [Example 456, 4′-(piperidin-4-yl)-4-(piperidin-4-ylmethyl)-2-(2H-tetrazol-5-yl)-[1,1′-biphenyl]-3-sulfonamide]",3.44,1.172,0.5859,0.5859,4.58,9.79,–,–,–
